{"source": "patent US10501575B2", "about": "“Biomimetic fluoroscopic films” (THE BOARD OF REGENTS OF THE UNIVERSITY OF TEXAS SYSTEM, priority 2015, dated 2019)", "key": {"TNF-α": {"system": "TNF-α", "test": "Anti-inflammatory effect, TNF-α ELISA in LPS stimulated RAW 264.7 cells", "type": "cell-based, mouse", "details": "for Cytokine Concentration TNF-α: LPS, 24 h", "source_text": "(§1) Therapeutic effect. […] PTNP concentrations were compared to free dexamethasone in media, which simulates systemic delivery. The experimental design included the expected concentrations of dexamethasone released from PTNP groups."}, "IL-1β": {"system": "IL-1β", "test": "Anti-inflammatory effect, IL-1β ELISA in LPS stimulated RAW 264.7 cells", "type": "cell-based, mouse", "details": "for Cytokine Concentration IL-1β: LPS, 24 h", "source_text": "as §1"}}}
{"smiles": "C[C@@H]1C[C@H]2[C@@H]3CCC4=CC(=O)C=C[C@]4(C)[C@@]3(F)[C@@H](O)C[C@]2(C)[C@@]1(O)C(=O)CO", "note": "[Free DEX, dexamethasone]", "values": [{"measurement": "concentration required to maintain TNF-α control concentration levels in the presence of stimuli", "setting": "TNF-α; ELISA", "result": 0.23, "unit": "mg/mL"}, {"measurement": "Cytokine Concentration TNF-α", "setting": "TNF-α; Free DEX 0.10 mg/mL", "result": "78 ± 3", "unit": "pg/mL"}, {"measurement": "Cytokine Concentration TNF-α", "setting": "TNF-α; Free DEX 0.50 mg/mL", "result": "66 ± 3", "unit": "pg/mL"}, {"measurement": "Cytokine Concentration TNF-α", "setting": "TNF-α; Free DEX 1.00 mg/mL", "result": "50 ± 3", "unit": "pg/mL"}, {"measurement": "Cytokine Concentration TNF-α", "setting": "TNF-α; Free DEX 2.00 mg/mL", "result": "35 ± 6", "unit": "pg/mL"}, {"measurement": "TNF-α versus control", "setting": "TNF-α; free dexamethasone 0.10-0.50 mg/mL", "result": "lowered TNF-α but not enough to be comparable to the control"}, {"measurement": "TNF-α concentrations versus control", "setting": "TNF-α; free dexamethasone in media 1 and 2 mg/mL", "result": "lowered TNF-α concentrations to control levels"}, {"measurement": "concentration required to maintain IL-1β control concentration levels in the presence of stimuli", "setting": "IL-1β; ELISA", "result": 0.23, "unit": "mg/mL"}, {"measurement": "Cytokine Concentration IL-1β", "setting": "IL-1β; Free DEX 0.10 mg/mL", "result": "1009 ± 7", "unit": "pg/mL"}, {"measurement": "Cytokine Concentration IL-1β", "setting": "IL-1β; Free DEX 0.50 mg/mL", "result": "759 ± 7", "unit": "pg/mL"}, {"measurement": "Cytokine Concentration IL-1β", "setting": "IL-1β; Free DEX 1.00 mg/mL", "result": "491 ± 2", "unit": "pg/mL"}, {"measurement": "Cytokine Concentration IL-1β", "setting": "IL-1β; Free DEX 2.00 mg/mL", "result": "489 ± 4", "unit": "pg/mL"}]}
